Measured values: patent US20250059220A1, “SUBSTITUTED BENZOTHIOPHENE DERIVATIVES AND METHODS OF USE THEREOF” (Merck Sharp & Dohme LLC, priority 2021, published 2025)

Key:
human PTPN2 (1-387) = human PTPN2 (1-387) (Homo sapiens (Human), UniProt P17706); test: Human PTPN2 Biochemical Assay; details: DiFMUP substrate
Outline: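 Fluorogenic DiFMUP hydrolysis (1 h, room temperature, read ex 360/em 460 nm) after 30 min compound preincubation with PTPN2 residues 1-387, in 50 mM Tris pH 7.4, 150 mM NaCl, 0.01% Tween20, 0.5 mM DTT. Effects scaled between buffer and enzyme controls, 4-parameter fit gives EC50.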

human PTPN1 (1-435) = human PTPN1 (1-435) (Homo sapiens (Human), UniProt P18031); test: Human PTPN1 Biochemical Assay; details: DiFMUP substrate, read-out: PTP1B IC50
Sequence of human PTPN1 (1-435) (P18031 whole entry): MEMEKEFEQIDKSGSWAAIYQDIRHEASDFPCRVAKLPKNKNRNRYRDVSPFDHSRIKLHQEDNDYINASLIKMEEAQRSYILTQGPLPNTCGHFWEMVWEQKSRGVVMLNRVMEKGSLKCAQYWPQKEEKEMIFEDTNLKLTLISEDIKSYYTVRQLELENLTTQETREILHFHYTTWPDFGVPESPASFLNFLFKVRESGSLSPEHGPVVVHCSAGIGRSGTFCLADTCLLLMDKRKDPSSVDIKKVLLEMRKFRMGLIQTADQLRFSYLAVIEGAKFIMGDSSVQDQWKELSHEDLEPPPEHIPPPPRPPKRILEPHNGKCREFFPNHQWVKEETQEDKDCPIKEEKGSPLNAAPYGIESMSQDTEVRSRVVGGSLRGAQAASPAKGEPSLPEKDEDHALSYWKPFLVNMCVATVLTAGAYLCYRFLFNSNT
Outline: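 Read-out is DiFMUP hydrolysis fluorescence (360 nm excitation, 460 nm emission) after 1 h at room temperature, following 30 min enzyme–compound preincubation.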

Sequence of human PTPN2 (1-387) (P17706 other isoform, or with tags, fused parts or gaps): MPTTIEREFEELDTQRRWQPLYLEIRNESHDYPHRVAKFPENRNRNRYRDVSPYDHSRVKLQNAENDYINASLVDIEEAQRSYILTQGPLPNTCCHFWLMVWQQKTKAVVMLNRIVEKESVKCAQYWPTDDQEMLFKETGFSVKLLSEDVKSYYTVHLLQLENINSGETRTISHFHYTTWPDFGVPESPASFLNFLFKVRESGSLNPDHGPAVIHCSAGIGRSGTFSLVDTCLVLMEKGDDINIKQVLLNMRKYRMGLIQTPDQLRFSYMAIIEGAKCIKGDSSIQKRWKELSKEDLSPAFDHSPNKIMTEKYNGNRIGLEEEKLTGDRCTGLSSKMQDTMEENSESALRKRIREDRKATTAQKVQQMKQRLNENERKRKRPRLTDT

Row | SMILES | IC50 (human PTPN2 (1-387)) | IC50 (human PTPN1 (1-435))
1 | N#CC1(CNC(=O)c2ccc3sc(C(F)(F)P(=O)(O)O)c(Br)c3c2)CC1 [Compound 38] | 4240 nM | 3400 nM
2 | C[C@@H](NC(=O)c1ccc2sc(C(F)(F)P(=O)(O)O)c(Br)c2c1)c1cccnc1 [Compound 199] | 1710 nM | 1190 nM
3 | Cc1nn[nH]c1-c1cc(OCCCC(F)(F)F)c2sc(C(F)(F)P(=O)(O)O)c(Br)c2c1 [Compound 366] | 2.6 nM | 2.5 nM
4 | Cn1nncc1CNC(=O)c1ccc2sc(C(F)(F)P(=O)(O)O)c(Br)c2c1 [Compound 193] | 5840 nM | 3140 nM
5 | O=C(Nc1ccc(F)cc1)c1ccc2sc(C(F)(F)P(=O)(O)O)c(Br)c2c1 [Compound 25] | 3160 nM | 2570 nM
6 | N#Cc1c(C(F)(F)P(=O)(O)O)sc2ccc(C(=O)NCc3ncn[nH]3)cc12 [Compound 171] | 1470 nM | 2180 nM
7 | Cc1cnc(F)c(CNC(=O)c2ccc3sc(C(F)(F)P(=O)(O)O)c(Br)c3c2)c1 [Compound 183] | 2000 nM | 1410 nM
8 | C[C@H](NC(=O)c1ccc2sc(C(F)(F)P(=O)(O)O)c(Br)c2c1)c1ccccn1 [Compound 185] | 5200 nM | 3390 nM
9 | NC(=O)c1cc(OCc2ccc(S(N)(=O)=O)nc2)c2sc(C(F)(F)P(=O)(O)O)c(Br)c2c1 [Compound 380] | 2.5 nM | 2.9 nM
10 | N#Cc1ccc2c(Br)c(C(F)(F)P(=O)(O)O)sc2c1 [Compound 299, ((3-bromo-6-cyanobenzo[b]thiophen-2-yl)difluoromethyl)phosphonic acid] | 17100 nM | 8980 nM
11 | CC1CCS(=O)(=O)C1CCOc1cc(C(N)=O)cc2c(Br)c(C(F)(F)P(=O)(O)O)sc12 (single isomer, unassigned) [Compound 395] | 17.3 nM | 21.2 nM
12 | O=C(NCc1cccnn1)c1cc(O)c2sc(C(F)(F)P(=O)(O)O)c(Br)c2c1 [Compound 166] | 3600 nM | 3160 nM
13 | Cc1cc(NC(=O)c2ccc3sc(C(F)(F)P(=O)(O)O)c(Br)c3c2)n(Cc2ccccc2)n1 [Compound 73] | 3080 nM | 2560 nM
14 | CC1(c2ccc(COc3cc(C(N)=O)cc4c(Br)c(C(F)(F)P(=O)(O)O)sc34)cc2)CC1 [Compound 396] | 20.5 nM | 68.1 nM
15 | Cn1cc(NC(=O)c2ccc3sc(C(F)(F)P(=O)(O)O)c(Br)c3c2)cn1 [Compound 96] | 1280 nM | 940 nM
16 | NC(=O)c1cc(OCCCOC(F)(F)F)c2sc(C(F)(F)P(=O)(O)O)c(Br)c2c1 [Compound 252] | 106 nM | 110 nM
17 | O=C(Nc1ccccc1-c1ccccc1)c1ccc2sc(C(F)(F)P(=O)(O)O)c(Br)c2c1 [Compound 62] | 1610 nM | 2000 nM
18 | NC(=O)c1cc(OCC[C@@H]2C[C@H]2C(F)(F)F)c2sc(C(F)(F)P(=O)(O)O)c(Br)c2c1 [Compound 282] | 168 nM | 71 nM
19 | O=C(NC1(c2cccnc2)CC1)c1ccc2sc(C(F)(F)P(=O)(O)O)c(Br)c2c1 [Compound 180] | 6630 nM | 13700 nM
20 | CC(C)(C)c1ccc(COc2cc(C(N)=O)cc3c(Br)c(C(F)(F)P(=O)(O)O)sc23)cc1 [Compound 359] | 35.2 nM | 109 nM
21 | O=C(Nc1ccccc1)c1ccc2sc(C(F)(F)P(=O)(O)O)c(Br)c2c1 [Compound 1, ((3-bromo-5-(phenylcarbamoyl)benzo[b]thiophen-2-yl)difluoromethyl)phosphonic acid] | 3010 nM | 1610 nM
22 | C[C@@H](NC(=O)c1ccc2sc(C(F)(F)P(=O)(O)O)c(Br)c2c1)c1ccnn1C [Compound 176] | 4720 nM | 2680 nM
23 | N#CCCCCNC(=O)c1ccc2sc(C(F)(F)P(=O)(O)O)c(Br)c2c1 [Compound 46] | 8500 nM | 6230 nM
24 | CC(NC(=O)c1ccc2sc(C(F)(F)P(=O)(O)O)c(Br)c2c1)c1ccc2c(c1)OCCO2 (stereo not shown) [Compound 80] | 1890 nM | 2130 nM
25 | NC(=O)c1cc(OCCC2CCCS2(=O)=O)c2sc(C(F)(F)P(=O)(O)O)c(Br)c2c1 (single isomer, unassigned) [Compound 371] | 26.9 nM | 18 nM
26 | CCC(NC(=O)c1ccc2sc(C(F)(F)P(=O)(O)O)c(Br)c2c1)c1cccnc1 (stereo not shown) [Compound 177] | 2070 nM | 839 nM
27 | COC(C)(C)C#Cc1cc(C(N)=O)cc2c(Br)c(C(F)(F)P(=O)(O)O)sc12 [Compound 234, ((3-bromo-5-carbamoyl-7-(3-methoxy-3-methylbut-1-yn-1-yl)benzo[b]thiophen-2-yl)difluoromethyl)phosphonic acid] | 774 nM | 490 nM

Row | SMILES | IC50 (human PTPN2 (1-387)) | IC50 (human PTPN1 (1-435))
28 | O=P(O)(O)C(F)(F)c1sc2ccc(-c3nc4ccccc4[nH]3)cc2c1Br [Compound 230, ((5-(1H-benzo[d]imidazol-2-yl)-3-bromobenzo[b]thiophen-2-yl)difluoromethyl)phosphonic acid] | 1730 nM | 1030 nM
29 | N#Cc1c(C(F)(F)P(=O)(O)O)sc2c(OCCCS(N)(=O)=O)cc(-c3c[nH]nn3)cc12 [Compound 455, ((3-cyano-7-(3-sulfamoylpropoxy)-5-(1H-1,2,3-triazol-4-yl)benzo[b]thiophen-2-yl)difluoromethyl)phosphonic acid] | 2.69 nM | 3.6 nM
30 | CC(NC(=O)c1ccc2sc(C(F)(F)P(=O)(O)O)c(Br)c2c1)c1cccc(OC(F)(F)F)c1 (stereo not shown) [Compound 102] | 2460 nM | 2880 nM
31 | C[C@@H](NC(=O)c1ccc2sc(C(F)(F)P(=O)(O)O)c(C#N)c2c1)c1cccnn1 [Compound 186] | 648 nM | 1380 nM
32 | CNC(=O)c1cc(OCCCNS(C)(=O)=O)c2sc(C(F)(F)P(=O)(O)O)c(Br)c2c1 [Compound 323] | 55.4 nM | 44 nM
33 | O=C(NCc1cccnn1)c1cc(OCCCc2ccncc2)c2sc(C(F)(F)P(=O)(O)O)c(Br)c2c1 [Compound 267] | 12.2 nM | 26 nM
34 | Cn1cnc(CNC(=O)c2ccc3sc(C(F)(F)P(=O)(O)O)c(Br)c3c2)c1 [Compound 178] | 5820 nM | 10800 nM
35 | O=C(NCc1ncc[nH]1)c1ccc2sc(C(F)(F)P(=O)(O)O)c(Br)c2c1 [Compound 174] | 4140 nM | 8610 nM
36 | CS(=N)(=O)Cc1cc(OCCCC(F)(F)F)c2sc(C(F)(F)P(=O)(O)O)c(Br)c2c1 (stereo not shown) [Compound 412] | 359 nM | 323 nM
37 | NC(=O)c1cc(OCCC(F)(F)C(F)(F)C(F)F)c2sc(C(F)(F)P(=O)(O)O)c(Br)c2c1 [Compound 291] | 26.8 nM | 21 nM
38 | CS(=O)(=O)N1CC2(CC(NC(=O)c3ccc4sc(C(F)(F)P(=O)(O)O)c(Br)c4c3)C2)C1 [Compound 48] | 7150 nM | 5530 nM
39 | O=C(NCc1n[nH]c(=O)[nH]1)c1ccc2sc(C(F)(F)P(=O)(O)O)c(Br)c2c1 [Compound 187] | 1860 nM | 961 nM
40 | CS(=O)(=O)c1ccc(COc2cc(-c3nc[nH]n3)cc3c(Br)c(C(F)(F)P(=O)(O)O)sc23)cc1 [Compound 444] | < 2.5 nM | < 2.5 nM
41 | COc1ccc2c(c1)C(CC(C)NC(=O)c1ccc3sc(C(F)(F)P(=O)(O)O)c(Br)c3c1)C=N2 (stereo not shown) [Compound 152] | 8220 nM | 4410 nM
42 | O=P(O)(O)C(F)(F)c1sc2cc(Br)ccc2c1Br [Compound 298, ((3,6-dibromobenzo[b]thiophen-2-yl)difluoromethyl)phosphonic acid] | 21600 nM | 11700 nM
43 | O=C(NCc1c[nH]nn1)c1cc(Cl)c2sc(C(F)(F)P(=O)(O)O)c(Br)c2c1 [Compound 159] | 470 nM | 251 nM
44 | O=C(NC(c1cccnc1)C(F)(F)F)c1ccc2sc(C(F)(F)P(=O)(O)O)c(Br)c2c1 (single isomer, unassigned) [Compound 222b, (R or S)-((3-bromo-5-((2,2,2-trifluoro-1-(pyridin-3-yl)ethyl)carbamoyl)benzo[b]thiophen-2-yl)difluoromethyl)phosphonic acid] | 771 nM | 707 nM
45 | NC(=O)c1cc(OCC2CCC(F)(F)CC2)c2sc(C(F)(F)P(=O)(O)O)c(Br)c2c1 [Compound 253] | 84.6 nM | 118 nM
46 | O=C(NCc1cccnc1C(F)(F)F)c1ccc2sc(C(F)(F)P(=O)(O)O)c(Br)c2c1 [Compound 120] | 4990 nM | 3800 nM
47 | CS(=N)(=O)c1cc(OCCCC(F)(F)F)c2sc(C(F)(F)P(=O)(O)O)c(Br)c2c1 (stereo not shown) [Compound 413] | 7400 nM | 4080 nM
48 | O=C(NC(CO)c1ccccn1)c1ccc2sc(C(F)(F)P(=O)(O)O)c(Br)c2c1 (stereo not shown) [Compound 192] | 7980 nM | 4590 nM
49 | N#CCCNC(=O)c1ccc2sc(C(F)(F)P(=O)(O)O)c(C#N)c2c1 [Compound 6] | 4640 nM | 6050 nM
50 | CNC(=O)c1cc(OCCCS(N)(=O)=O)c2sc(C(F)(F)P(=O)(O)O)c(C#N)c2c1 [Compound 427] | 3.63 nM | 5.4 nM
51 | O=C(N[C@@H]1[C@@H]2COC[C@@H]21)c1ccc2sc(C(F)(F)P(=O)(O)O)c(Br)c2c1 [Compound 57] | 5090 nM | 4330 nM
52 | O=C(Nc1cccc(F)c1)c1ccc2sc(C(F)(F)P(=O)(O)O)c(Br)c2c1 [Compound 33] | 1860 nM | 2120 nM
53 | CC(C)(NC(=O)c1ccc2sc(C(F)(F)P(=O)(O)O)c(Br)c2c1)c1ncn(-c2ccccc2)n1 [Compound 70] | 8750 nM | 9210 nM
